Laboratory results as given in patent publication US12173018B2, “Penicillin-binding protein inhibitors” (priority 2018, dated 2024).
pEC50: −log10 of the molar value. Values after ≈ are worked out from the molar mass of the structure shown. Where two headings read alike, the source gives them in different places.

Columns and labels:
E. coli PBP3 = E. coli PBP3 (Escherichia coli (strain K12), UniProt P0AD68); assay: E. coli PBP3 Bocillin-FL fluorescence polarization competition binding assay
Procedure, shortened: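 Polarization at 490/520 nm was monitored for 60 minutes in pH 8.0 Hepes buffer containing 300 mM NaCl and 5% glycerol, with compound spanning 0–1000 μM.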

E. coli ATCC 25922 = assay: Broth microdilution MIC, E. coli ATCC 25922; type: cell-based; settings: Escherichia coli
Procedure, shortened: (§1)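 Following CLSI guidance, growth inhibition is measured in Mueller-Hinton broth with divalent cations. Inoculum 5×10^5 CFU/mL; incubation 16-20 hours, 37° C; endpoint is visual absence of growth.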

E. coli AG100 = assay: Broth microdilution MIC, E. coli AG100 (wild-type parent); type: cell-based; settings: Escherichia coli; wild-type parent E. coli AG100, broth microdilution; read-out: MIC E. coli AG100
Procedure, shortened: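 Starting inoculum of 5×10^5 CFU/mL, from colonies grown 3-5 h in Mueller-Hinton broth with divalent cations, added to two-fold compound dilution series.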

E. coli 901C = assay: microbe, parasite or virus in culture; type: cell-based; settings: Escherichia coli; hyper-permeable E. coli 901C, broth microdilution; read-out: MIC E. coli 901C
Procedure, shortened: as §1

E. coli AG100A = assay: microbe, parasite or virus in culture; type: cell-based; settings: Escherichia coli, read-out: MIC E. coli AG100A
Procedure, shortened: as §1

E. coli D22 = assay: microbe, parasite or virus in culture; type: cell-based; settings: Escherichia coli; hyper-permeable E. coli D22, broth microdilution; read-out: MIC E. coli D22
Procedure, shortened: as §1

K. pneumoniae SI-117 = assay: microbe, parasite or virus in culture; type: cell-based; settings: Klebsiella pneumoniae, SI117, read-out: MIC K. pneumoniae SI-117
Procedure, shortened: as §1

K. pneumoniae UMM = assay: microbe, parasite or virus in culture; type: cell-based; settings: Klebsiella pneumoniae; K. pneumoniae UMM producing SHV-5 and KPC-2; read-out: MIC K. pneumoniae UMM
Procedure, shortened: as §1

K. pneumoniae 848844 = assay: microbe, parasite or virus in culture; type: cell-based, Klebsiella pneumoniae; settings: Klebsiella pneumoniae; K. pneumoniae 848844 producing SHV-11 and KPC-2; read-out: MIC K. pneumoniae 848844
Procedure, shortened: as §1

[1] = system: N. gonorrhoeae ATCC 49226; assay: Liquid broth MIC, N. gonorrhoeae ATCC 49226; type: cell-based; settings: Neisseria gonorrhoeae, ATCC49226; N. gonorrhoeae ATCC 49226, liquid broth; read-out: Minimum Inhibitory Concentration, N. gonorrhoeae ATCC 49226
Protocol: (§2) Additional antibacterial testing of the series was performed in wild-type reference strains of N. gonorrhoeae (ATCC 49226, FA1090, WHO F and FA19). Liquid broth-based assays were used for antibacterial testing of PBP inhibitors in Neisseria gonorrhoeae. Briefly, cryo-preserved bacterial cultures of clinical strains are streaked for isolation on GC Base agar (BD #228950 at 36 g/L autoclaved at 121° C. for 20 minutes to sterilize) with 1% Kellogg's supplement (40 g glucose, 0.5 g glutamine, 0.05 g ferric nitrate and 2 mg cocarboxylase per 100 mL deionized water filter sterilized through 0.2 μm syringe filters). Following incubation at 36° C. and 5% CO2 to allow growth of colonies, strains are aseptically sub-cultured from original agar plate onto 3 agar plates per strain 24 hours before inoculum preparation. 2-fold serial dilutions of test compounds are conducted in a 96 well plate with a final volume of 150 μL per well at 4/3-fold the final desired concentration. For preparation of assay inoculum, a direct suspension is prepared by aseptically swabbing all colonies from sub-cultured agar plates into culture tubes containing 2 mL of fresh GC broth with […]. After the dilution plates are set up, direct suspensions are then diluted in a cuvette containing GC broth (15 g proteose peptone 43, 1 g corn starch, 4 g dipotassium phosphate, 1 g monopotassium phosphate and 5 g sodium chloride per liter of deionized water are mixed on a stir plate for 20 minutes, pH adjusted to 7.2+/−0.2 pH units with 1 N HCl, centrifuged at 10,000×g for 20 minutes to pellet undissolved corn starch and then autoclaved at 121° C. for 20 minutes to sterilize) and the optical density is measured at 600 nm. Inocula are diluted such that 50 μL of this culture in […] results in a starting bacterial concentration of 5×10^5 CFU/mL when added to the dilution plates. The plates are incubated 40-42 hours at 36° C. and 5% CO2. The MIC is read visually as the lowest concentration well with no bacterial growth.

N. gonorrhoeae FA1090 = assay: Liquid broth MIC, N. gonorrhoeae FA1090; type: cell-based; settings: Neisseria gonorrhoeae; N. gonorrhoeae FA1090, liquid broth; read-out: Minimum Inhibitory Concentration, N. gonorrhoeae FA1090
Protocol: as §2

N. gonorrhoeae WHO F = assay: Liquid broth MIC, N. gonorrhoeae WHO F; type: cell-based; settings: Neisseria gonorrhoeae; N. gonorrhoeae WHO F, liquid broth; read-out: Minimum Inhibitory Concentration, N. gonorrhoeae WHO F
Protocol: as §2

N. gonorrhoeae FA19 = assay: Liquid broth MIC, N. gonorrhoeae FA19; type: cell-based; settings: Neisseria gonorrhoeae; N. gonorrhoeae FA19, liquid broth; read-out: Minimum Inhibitory Concentration, N. gonorrhoeae FA19
Protocol: as §2

[2] = ATCC25922, E. coli ATCC 25922, broth microdilution, read-out: MIC E. coli 25922

Sequence of E. coli PBP3 (P0AD68 whole entry): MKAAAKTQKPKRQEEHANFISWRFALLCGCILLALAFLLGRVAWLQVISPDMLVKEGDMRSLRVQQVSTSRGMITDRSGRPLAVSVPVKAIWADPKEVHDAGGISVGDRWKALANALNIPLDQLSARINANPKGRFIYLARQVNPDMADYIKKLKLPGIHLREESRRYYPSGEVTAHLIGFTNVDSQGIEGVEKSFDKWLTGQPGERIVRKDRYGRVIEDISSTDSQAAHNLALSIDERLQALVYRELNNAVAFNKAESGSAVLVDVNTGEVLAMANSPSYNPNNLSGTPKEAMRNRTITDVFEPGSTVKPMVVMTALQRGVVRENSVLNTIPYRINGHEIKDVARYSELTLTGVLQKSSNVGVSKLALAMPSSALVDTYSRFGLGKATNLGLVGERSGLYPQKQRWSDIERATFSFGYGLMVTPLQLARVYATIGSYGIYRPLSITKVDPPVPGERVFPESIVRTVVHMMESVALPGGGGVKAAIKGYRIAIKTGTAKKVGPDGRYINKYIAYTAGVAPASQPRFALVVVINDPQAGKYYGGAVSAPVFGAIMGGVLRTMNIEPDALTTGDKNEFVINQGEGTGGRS

| SMILES | pEC50 (E. coli PBP3) | MIC (E. coli ATCC 25922; [2]) | MIC (E. coli AG100) | MIC (E. coli 901C) | MIC (E. coli AG100A) | MIC (E. coli D22) | MIC (K. pneumoniae SI-117) | MIC (K. pneumoniae UMM) | MIC (K. pneumoniae 848844) | MIC [1] | MIC (N. gonorrhoeae FA1090) | MIC (N. gonorrhoeae WHO F) | MIC (N. gonorrhoeae FA19) | pEC50 (E. coli PBP3; fluorescence polarization competition binding with Bocillin-FL, read-out: E. coli K12 PBP3 Potency) | MIC (E. coli ATCC 25922; ATCC25922, read-out: MIC E. coli 25922) |
| --- | --- | --- | --- | --- | --- | --- | --- | --- | --- | --- | --- | --- | --- | --- | --- |
| O=C(O)c1cccc2c1OB(O)[C@@H](NC(=O)C(NC(=O)N1C[C@@H]3CCCN3C(=O)C1=O)c1ncc(O)cc1F)C2 (stereo partly drawn) [Example 223, (3R)-3-(2-((S)-3,4-dioxooctahydropyrrolo[1,2-a]pyrazine-2-carboxamido)-2-(3-fluoro-5-hydroxypyridin-2-yl)acetamido)-2-hydroxy-3,4-dihydro-2H-benzo[e][1,2]oxaborinine-8-carboxylic acid] | 3.30 to 4.52 | > 128 µg/mL | > 128 µg/mL | 8 to 16 µg/mL | 32 to 64 µg/mL | 32 to 64 µg/mL | > 128 µg/mL | > 128 µg/mL | > 128 µg/mL | > 64 µg/mL | 1 to 2 µg/mL (≈ 1.8 to 3.6 µM) | 1 to 2 µg/mL (≈ 1.8 to 3.6 µM) | > 64 µg/mL | – | – |
| CCN1C[C@H](C)N(C(=O)NC(C(=O)N[C@H]2Cc3cccc(C(=O)O)c3OB2O)c2ncc(O)cc2F)C(=O)C1=O (stereo partly drawn) [Example 192, (3R)-3-(2-((S)-4-ethyl-6-methyl-2,3-dioxopiperazine-1-carboxamido)-2-(3-fluoro-5-hydroxypyridin-2-yl)acetamido)-2-hydroxy-3,4-dihydro-2H-benzo[e][1,2]oxaborinine-8-carboxylic acid] | – | 2 to 4 µg/mL | 8 to 16 µg/mL | < 0.25 µg/mL | 0.5 to 1 µg/mL | 0.5 to 1 µg/mL | 32 to 64 µg/mL | 8 to 16 µg/mL | 32 to 64 µg/mL | 1 to 2 µg/mL (≈ 1.79 to 3.59 µM) | < 0.125 µg/mL | < 0.125 µg/mL | 1 to 2 µg/mL (≈ 1.79 to 3.59 µM) | > 4.52 | – |
| Nc1ncc(C(NC(=O)N2CCN(CCF)C(=O)C2=O)C(=O)N[C@H]2Cc3ccc(F)c(C(=O)O)c3OB2O)s1 (stereo partly drawn) [Example 153, (3R)-3-(2-(2-aminothiazol-5-yl)-2-(4-(2-fluoroethyl)-2,3-dioxopiperazine-1-carboxamido)acetamido)-7-fluoro-2-hydroxy-3,4-dihydro-2H-benzo[e][1,2]oxaborinine-8-carboxylic acid] | 3.30 to 4.52 | – | – | – | – | – | – | – | – | 1 to 2 µg/mL (≈ 1.77 to 3.53 µM) | 0.25 to 0.5 µg/mL (≈ 0.441 to 0.883 µM) | 0.25 to 0.5 µg/mL (≈ 0.441 to 0.883 µM) | 1 to 2 µg/mL (≈ 1.77 to 3.53 µM) | – | – |
| CCN1CCN(C(=O)NC(C(=O)N[C@H]2Cc3cccc(C(=O)O)c3OB2O)c2ccc(C(N)=O)cc2)C(=O)C1=O (stereo partly drawn) [Example 186, (3R)-3-(2-(4-carbamoylphenyl)-2-(4-ethyl-2,3-dioxopiperazine-1-carboxamido)acetamido)-2-hydroxy-3,4-dihydro-2H-benzo[e][1,2]oxaborinine-8-carboxylic acid] | 3.30 to 4.52 | 32 to 64 µg/mL | 8 to 16 µg/mL | < 0.25 µg/mL | 2 to 4 µg/mL | 0.5 to 1 µg/mL | > 128 µg/mL | 32 to 64 µg/mL | > 128 µg/mL | 1 to 2 µg/mL (≈ 1.81 to 3.63 µM) | < 0.125 µg/mL | < 0.125 µg/mL | 1 to 2 µg/mL (≈ 1.81 to 3.63 µM) | – | – |
| CCN1CCN(C(=O)NC(C(=O)N[C@H]2Cc3ccc(Cl)c(C(=O)O)c3OB2O)c2csc(N)n2)C(=O)C1=O (stereo partly drawn) [Example 215, (3R)-3-(2-(2-aminothiazol-4-yl)-2-(4-ethyl-2,3-dioxopiperazine-1-carboxamido)acetamido)-7-chloro-2-hydroxy-3,4-dihydro-2H-benzo[e][1,2]oxaborinine-8-carboxylic acid] | 3.30 to 4.52 | – | – | – | – | – | – | – | – | 4 to 8 µg/mL (≈ 7.08 to 14.2 µM) | 1 to 2 µg/mL (≈ 1.77 to 3.54 µM) | 0.25 to 0.5 µg/mL (≈ 0.443 to 0.885 µM) | 4 to 8 µg/mL (≈ 7.08 to 14.2 µM) | – | – |
| CCN1CCN(C(=O)NC(C(=O)N[C@H]2Cc3ccc(F)c(C(=O)O)c3OB2O)c2cnc(N)s2)C(=O)C1=O (stereo partly drawn) [Example 152, (3R)-3-(2-(2-aminothiazol-5-yl)-2-(4-ethyl-2,3-dioxopiperazine-1-carboxamido)acetamido)-7-fluoro-2-hydroxy-3,4-dihydro-2H-benzo[e][1,2]oxaborinine-8-carboxylic acid] | 3.30 to 4.52 | – | – | – | – | – | – | – | – | 1 to 2 µg/mL (≈ 1.82 to 3.65 µM) | 0.25 to 0.5 µg/mL (≈ 0.456 to 0.912 µM) | 0.25 to 0.5 µg/mL (≈ 0.456 to 0.912 µM) | 1 to 2 µg/mL (≈ 1.82 to 3.65 µM) | – | – |
| CCN1CCN(C(=O)N[C@H](C(=O)N[C@H]2Cc3ccc(F)c(C(=O)O)c3OB2O)c2ccc(O)c(F)c2)C(=O)C1=O [Example 160, (R)-3-((S)-2-(4-ethyl-2,3-dioxopiperazine-1-carboxamido)-2-(3-fluoro-4-hydroxyphenyl)acetamido)-7-fluoro-2-hydroxy-3,4-dihydro-2H-benzo[e][1,2]oxaborinine-8-carboxylic acid] | 3.30 to 4.52 | > 128 µg/mL | > 128 µg/mL | 2 to 4 µg/mL | > 128 µg/mL | 32 to 64 µg/mL | > 128 µg/mL | > 128 µg/mL | > 128 µg/mL | 16 to 32 µg/mL (≈ 28.6 to 57.1 µM) | 0.25 to 0.5 µg/mL (≈ 0.446 to 0.892 µM) | 0.25 to 0.5 µg/mL (≈ 0.446 to 0.892 µM) | 16 to 32 µg/mL (≈ 28.6 to 57.1 µM) | – | – |
| CCN1CCN(C(=O)N[C@@H](C(=O)N[C@H]2Cc3cccc(C(=O)O)c3OB2O)c2ccc(O)c(O)c2)C(=O)C1=O [Example 39, (R)-3-((R)-2-(3,4-dihydroxyphenyl)-2-(4-ethyl-2,3-dioxopiperazine-1-carboxamido)acetamido)-2-hydroxy-3,4-dihydro-2H-benzo[e][1,2]oxaborinine-8-carboxylic acid] | – | 8 to 16 µg/mL | 8 to 16 µg/mL | 0.5 to 1 µg/mL | 2 to 4 µg/mL | – | – | 8 to 16 µg/mL | – | 1 to 2 µg/mL (≈ 1.85 to 3.7 µM) | < 0.125 µg/mL | 0.25 to 0.5 µg/mL (≈ 0.463 to 0.925 µM) | 1 to 2 µg/mL (≈ 1.85 to 3.7 µM) | – | – |
| CCN1CCN(C(=O)NC(C(=O)N[C@H]2Cc3cccc(C(=O)O)c3OB2O)c2ccsc2)C(=O)C1=O (stereo partly drawn) [Example 137, (3R)-3-(2-(4-ethyl-2,3-dioxopiperazine-1-carboxamido)-2-(thiophen-3-yl)acetamido)-2-hydroxy-3,4-dihydro-2H-benzo[e][1,2]oxaborinine-8-carboxylic acid] | 3.30 to 4.52 | – | – | – | – | – | – | – | – | 1 to 2 µg/mL (≈ 1.94 to 3.89 µM) | < 0.125 µg/mL | < 0.125 µg/mL | 4 to 8 µg/mL (≈ 7.78 to 15.6 µM) | – | – |
| CCN1CCN(C(=O)NC(C(=O)N[C@H]2Cc3cccc(C(=O)O)c3OB2O)c2ncc(OC(C)=O)cc2F)C(=O)C1=O (stereo partly drawn) [Example 207, (3R)-3-(2-(5-acetoxy-3-fluoropyridin-2-yl)-2-(4-ethyl-2,3-dioxopiperazine-1-carboxamido)acetamido)-2-hydroxy-3,4-dihydro-2H-benzo[e][1,2]oxaborinine-8-carboxylic acid] | – | – | 8 to 16 µg/mL | < 0.25 µg/mL | 0.5 to 1 µg/mL | 0.5 to 1 µg/mL | 32 to 64 µg/mL | 8 to 16 µg/mL | 32 to 64 µg/mL | 0.25 to 0.5 µg/mL (≈ 0.427 to 0.854 µM) | < 0.125 µg/mL | < 0.125 µg/mL | 1 to 2 µg/mL (≈ 1.71 to 3.42 µM) | – | 8 to 16 µg/mL |
